System: human squamous carcinoma cell line HSC-2
Test: MTT cell survival assay, HSC human cancer cell line
Format: cell-based
Conditions: paclitaxel applied 72 hours, AT84 and SG lines (FIG. 4)
Experimental: Cell survival was measured using a colorimetric method with 3-(4,5-dimethylthiazol-2-yl)-2,5-diphenyltetrazolium bromide (MTT). This molecule of yellow colour is reduced by mitochondrial dehydrogenase enzymes to a blue-coloured salt. This allows cell viability to be quantified in response to a treatment.
Cell survival was measured before and after exposure to different concentrations of SiC nanoparticles (0.1-0.5-1 mg/mL in a suspension of RPMI medium 10% FCS).
The cells were cultured in 96-well plates in the presence of SiC nanoparticles for 18 hours after which the media were replaced by standard culture media without any nanoparticles (RPMI medium 10% FCS, Sigma).
Cell viability was measured after different times (24, 48 and 72 hours). […]
Cell viability was measured by the difference in optical density at wavelengths of 450 and 504 nm, using a spectrophotometer connected to a computer system (Power Wave, Bio-Tek Instrument Inc.). The measured absorbency is then directly proportional to the number of living cells. The results are expressed as percentage survival measured under the initial conditions before exposure of the cells to the SiC nanoparticles. […]
Cell survival was measured using a colorimetric method with 3-(4,5-diemthylthiazol-2-yl)-2,5-diphenyltetrazolium bromide (MTT) such as described above in Example 1. […]
Cell viability was measured after 72 hours. […]

For `CC(=O)O[C@H]1C(=O)[C@@]2(C)[C@H]([C@H](OC(=O)c3ccccc3)[C@]3(O)C[C@H](OC(=O)[C@H](O)[C@@H](NC(=O)c4ccccc4)c4ccccc4)C(C)=C1C3(C)C)[C@]1(OC(C)=O)CO[C@@H]1C[C@@H]2O` [paclitaxel], the “inhibition percentages of cell survival compared with the SiC nanoparticles” value was “of the same order”.

— patent publication US20120021012A1, “NOVEL PHARMACEUTICAL USES FOR NANOPARTICLES” (CENTRE NATIONAL DE LA RECHERCHE SCIENTIFIQUE (C.N.R.S), priority 2008, published 2012)
